Laboratory results taken from ChEMBL document CHEMBL5303304, “EUbOPEN Chemogenomics Library - IncuCyte” (2023).
Numbered stars: 1 amine (or outer) side, 2 acyl side, 3 side chain; on linkers, the order of the positions; unused ones are H or OH. Bridge positions count the residues as written; N and C are the ends. Square brackets hold non-standard residues; d marks the D form. Peptide text beside a SMILES is read from it. I, II: the chains in the order shown. Hexamethylenediamine = C(CCCN[*:2])CCN[*:1]; Dip = N[C@H](C(=O)O)C(c1ccccc1)c1ccccc1; Chg = N[C@H](C(=O)O)C1CCCCC1; NMeA = CN[C@@H](C)C(=O)O

Key:
Format in all cases: toxicity, cell-based
U2OS = experiment: Incucyte cell viability with U2OS; details: human, 10 µM, compound concentration 10 uM
HEK-293T = experiment: Incucyte cell viability with HEK293T; details: human, 10 µM, compound concentration 10 uM
Fibroblast = experiment: Incucyte cell viability with human fibroblast; details: 10 µM, compound concentration 10 uM
Further: unitless GR value; below 1 slowed growth and below 0 cell loss.

| SMILES | Growth Rate (U2OS; 0 h, replicate number 2) | Growth Rate (U2OS; 6 h, replicate number 1) | Growth Rate (U2OS; 6 h, replicate number 2) | Growth Rate (U2OS; 12 h, replicate number 2) | Growth Rate (U2OS; 18 h, replicate number 1) | Growth Rate (U2OS; 18 h, replicate number 2) | Growth Rate (U2OS; 24 h, replicate number 2) | Growth Rate (HEK-293T; 6 h, replicate number 1) | Growth Rate (HEK-293T; 6 h, replicate number 2) | Growth Rate (HEK-293T; 12 h, replicate number 1) | Growth Rate (HEK-293T; 12 h, replicate number 2) | Growth Rate (HEK-293T; 18 h, replicate number 1) | Growth Rate (HEK-293T; 18 h, replicate number 2) | Growth Rate (HEK-293T; 24 h, replicate number 1) | Growth Rate (HEK-293T; 24 h, replicate number 2) | Growth Rate (Fibroblast; 0 h, replicate number 2) | Growth Rate (Fibroblast; 12 h, replicate number 1) | Growth Rate (Fibroblast; 12 h, replicate number 2) | Growth Rate (Fibroblast; 24 h, replicate number 1) | Growth Rate (HEK-293T; 0 h, replicate number 2) | other results |
| --- | --- | --- | --- | --- | --- | --- | --- | --- | --- | --- | --- | --- | --- | --- | --- | --- | --- | --- | --- | --- | --- |
| CN[C@@H](C)C(=O)N[C@H](C(=O)N1CCC[C@H]1C(=O)N[C@H](C(=O)NCCCCCCNC(=O)[C@@H](NC(=O)[C@@H]1CCCN1C(=O)[C@@H](NC(=O)[C@H](C)NC)C1CCCCC1)C(c1ccccc1)c1ccccc1)C(c1ccccc1)c1ccccc1)C1CCCCC1 (I: H-[NMeA][Chg]P[Dip] / II: H-[NMeA][Chg]P[Dip]; linker I:C-II:C via Hexamethylenediamine) | -0.47 | -0.4 | -0.46 | -0.63 | -0.25 | -0.21 | -0.21 | -0.33 | -0.41 | -0.42 | -0.4 | -0.3 | -0.31 | -0.23 | -0.25 | -0.82 | 0.82 | 0.74 | 0.5 | – | Growth Rate (U2OS; 12 h, replicate number 1): -0.41; Growth Rate (U2OS; 24 h, replicate number 1): -0.22; Growth Rate (Fibroblast; 18 h, replicate number 1): 0.47; Growth Rate (Fibroblast; 18 h, replicate number 2): 0.49; Growth Rate (Fibroblast; 24 h, replicate number 2): 0.33 |
| C[C@H](C[C@H](N)C(=O)O)C(=O)O [2S,4R-4-METHYLGLUTAMATE] | – | – | 0.65 | 0.89 | – | 0.82 | 0.94 | – | – | – | – | – | – | – | – | -0.67 | – | 0.66 | 0.42 | 0.9 | Growth Rate (Fibroblast; 6 h, replicate number 2): 0.92; Growth Rate (Fibroblast; 24 h, replicate number 2): 0.97 |
| N#CN1CC[C@H](C(=O)Nc2nc3c(s2)CN(C(=O)CN=[N+]=[N-])CC3)C1 [8RK64] | – | – | – | – | – | 0.94 | 0.89 | – | 0.66 | 0.99 | 0.81 | – | 0.93 | – | 0.94 | 0.48 | 0.41 | – | – | – | – |
| Cc1onc(O)c1CC(N)C(=O)O [(R,S)-AMPA] | -0.98 | – | 0.78 | 0.82 | – | 0.94 | 0.94 | 0.47 | 0.09 | 0.21 | 0.69 | 0.78 | 0.64 | 0.74 | – | – | -1 | 0.59 | – | 0.65 | Growth Rate (U2OS; 0 h, replicate number 1): -0.22; Growth Rate (Fibroblast; 0 h, replicate number 1): -0.2; Growth Rate (Fibroblast; 6 h, replicate number 2): -0.99 |
| CCC(=N\O)/C(C)=C/c1ccc(F)cc1 [A-079] | -0.97 | 0.53 | 0.16 | 0.89 | 1 | 0.78 | 0.79 | 0.09 | -0.79 | – | -0.09 | – | 0.33 | – | 0.57 | -0.47 | – | – | – | – | Growth Rate (Fibroblast; 6 h, replicate number 1): 0.02; Growth Rate (Fibroblast; 18 h, replicate number 1): 0.86 |
| O=C(Cc1ccccc1)Nc1nnc(N2CC[C@@H]3[C@H]2CN3c2cccnn2)s1 [A-426] | – | 0.79 | – | – | 0.77 | – | – | 0.31 | – | 0.39 | – | 0.67 | – | 0.85 | – | – | 0.76 | 0.86 | 0.73 | – | Growth Rate (U2OS; 0 h, replicate number 1): -0.69; Growth Rate (U2OS; 12 h, replicate number 1): 0.69; Growth Rate (U2OS; 24 h, replicate number 1): 0.84; Growth Rate (Fibroblast; 6 h, replicate number 1): 0.66; Growth Rate (Fibroblast; 6 h, replicate number 2): 0.16; Growth Rate (Fibroblast; 18 h, replicate number 1): 0.8; Growth Rate (Fibroblast; 18 h, replicate number 2): 0.69 |
| O=C(Cc1ccccc1)Nc1nnc(N2C[C@H]3C[C@@H]2CN3c2cccnn2)s1 [A-446] | 0.56 | 0.82 | 0.43 | 0.59 | 0.54 | 0.8 | 0.77 | – | 0.68 | 0.83 | 0.97 | – | 0.86 | 0.93 | 0.94 | 0.67 | 0.45 | 0.18 | 0.33 | -0.11 | Growth Rate (U2OS; 0 h, replicate number 1): 0.34; Growth Rate (U2OS; 12 h, replicate number 1): 0.68; Growth Rate (U2OS; 24 h, replicate number 1): 0.87; Growth Rate (HEK-293T; 0 h, replicate number 1): 0.58; Growth Rate (Fibroblast; 6 h, replicate number 1): 0.15; Growth Rate (Fibroblast; 6 h, replicate number 2): -0.04; Growth Rate (Fibroblast; 18 h, replicate number 1): 0.27; Growth Rate (Fibroblast; 18 h, replicate number 2): 0.19; Growth Rate (Fibroblast; 24 h, replicate number 2): 0.04 |
| CCN1CCN(Cc2ccc(Nc3ncc(F)c(-c4cc(F)c5nc(C)n(C(C)C)c5c4)n3)nc2)CC1 [ABEMACICLIB] | – | – | – | 0.9 | 0.62 | 0.56 | 0.4 | 0.74 | 0.78 | 0.31 | 0.37 | 0.35 | 0.44 | 0.54 | 0.44 | – | – | – | – | -0.03 | Growth Rate (U2OS; 0 h, replicate number 1): -0.95; Growth Rate (U2OS; 12 h, replicate number 1): 0.83; Growth Rate (U2OS; 24 h, replicate number 1): 0.63; Growth Rate (HEK-293T; 0 h, replicate number 1): -1; Growth Rate (Fibroblast; 0 h, replicate number 1): -1 |
| CC(C)(C)c1ccc2c(c1)CC[C@H]2NC(=O)Nc1cccc2[nH]ncc12 [ABT-102] | -0.93 | – | – | 0.84 | – | 0.91 | 0.9 | 0.75 | 0.6 | 0.26 | 0.71 | 0.39 | 0.54 | 0.22 | 0.48 | 0.41 | -0.95 | – | 0.79 | 1 | Growth Rate (Fibroblast; 0 h, replicate number 1): 0.1 |
| CC(=O)Oc1ccc2c(c1)[C@@]1(C)CCC[C@](C)(C(=O)OC(=O)[C@@]3(C)CCC[C@]4(C)c5cc(OC(C)=O)ccc5CC[C@@H]34)[C@@H]1CC2 [ACETYL PODOCARPIC ACID ANHYDRIDE] | 0.76 | 0.6 | 0.92 | 0.76 | 0.73 | 0.96 | – | – | 0.34 | – | 0.36 | 0.8 | 0.46 | – | 0.57 | – | – | 0.33 | 0.96 | 0.84 | Growth Rate (U2OS; 0 h, replicate number 1): -0.55; Growth Rate (U2OS; 12 h, replicate number 1): 0.57; Growth Rate (U2OS; 24 h, replicate number 1): 0.84; Growth Rate (HEK-293T; 0 h, replicate number 1): 0.44; Growth Rate (Fibroblast; 0 h, replicate number 1): 0.14; Growth Rate (Fibroblast; 6 h, replicate number 2): 0.4; Growth Rate (Fibroblast; 18 h, replicate number 1): 0.83; Growth Rate (Fibroblast; 18 h, replicate number 2): 0.61; Growth Rate (Fibroblast; 24 h, replicate number 2): 0.62 |
